Assay results: PMC5433425 (PeerJ, 2017)
Values after ≈ are worked out from the molar mass of the structure shown. Like-named read-outs stand apart in the source and are kept apart here.

Columns and labels:
[1] = test system: E. coli AG100A (AcrAB pump-deficient); experiment: MIC, broth microdilution; assay type: cell-based, Escherichia coli; settings: Escherichia coli
E. coli AG100A [2] = experiment: microbe, parasite or virus in culture; assay type: cell-based, Escherichia coli; settings: Escherichia coli, AG100A, read-out: MIC without efflux inhibitor
Protocol: The minimum inhibitory concentrations (MICs) were determined using the broth microdilution method according to the CLSI guidelines ([Clinical and Laboratory Standards Institute, 2014]). […] Two-fold serial dilutions of the compounds were made to achieve the following concentrations: 320 µM–40 µM. The MICs were determined as the lowest concentration at which no visible growth was observed after 18 h of incubation at 37 °C. The assays were performed in triplicate and the MIC value was given as result of at least two concordant values.

[3] = test system: E. coli AG100tet (AcrAB overexpressing); experiment: MIC, broth microdilution; assay type: cell-based, Escherichia coli; settings: Escherichia coli
E. coli AG100tet [4] = experiment: microbe, parasite or virus in culture; assay type: cell-based, Escherichia coli; settings: Escherichia coli, AG100TET, read-out: MIC without efflux inhibitor, AG100tet; inhibitor 0 μM
Protocol: (§1) The assays were performed in triplicate and the MIC value was given as result of at least two concordant values.

E. coli AG100 [5] = experiment: Checkerboard synergy assay (MIC of antibiotics/EtBr with efflux inhibitor); assay type: cell-based, Escherichia coli; settings: Escherichia coli
Protocol: as §1

[6] = test system: E. coli K-12 AG100 (wild-type); experiment: MIC, broth microdilution; assay type: cell-based; settings: Escherichia coli
E. coli AG100tet [7] = experiment: EtBr accumulation by real-time fluorometry; settings: AG100tet
E. coli AG100A [8] = settings: AG100A
E. coli AG100 [9] = experiment: EtBr accumulation by real-time fluorometry
E. coli AG100 [10] = experiment: Membrane potential assay (BacLight, DiOC2(3)); settings: positive control 156 µM (half MIC)

CN(C)[C@@H]1C(O)=C(C(N)=O)C(=O)[C@@]2(O)C(O)=C3C(=O)c4c(O)cccc4[C@@](C)(O)[C@H]3C[C@@H]12 [TET, tetracycline]
MIC [1]: 0.5 µg/mL (≈ 1.13 µM)
MIC (E. coli AG100A [2]): 0.5 µg/mL (≈ 1.13 µM)
MIC [3]: 64 µg/mL (≈ 144 µM)
MIC (E. coli AG100tet [4]): 64 µg/mL (≈ 144 µM)

Cc1onc(-c2ccccc2)c1C(=O)N[C@@H]1C(=O)N2[C@@H]1SC(C)(C)[C@@H]2C(=O)O [OXA, oxacillin]
MIC (E. coli AG100 [5]; AG100, AG100, inhibitor 0 μM, read-out: MIC without efflux inhibitor): 512 µg/mL
MIC [1]: 2 µg/mL (≈ 4.98 µM)
MIC ([6]; E. coli AG100 wild-type, read-out: MIC): 512 µg/mL (≈ 1280 µM)
MIC (E. coli AG100A [2]): 2 µg/mL (≈ 4.98 µM)
MIC [3]: > 2050 µg/mL
MIC (E. coli AG100tet [4]): > 2050 µg/mL

CC[n+]1c(-c2ccccc2)c2cc(N)ccc2c2ccc(N)cc21 [EtBr, ethidium bromide]
MIC (E. coli AG100 [5]; AG100, read-out: MIC without efflux inhibitor): 200 µg/mL
MIC [1]: 3.12 µg/mL
equilibrium concentration (influx equals efflux) (E. coli AG100tet [7]): 2 µg/mL
MIC [6]: 200 µg/mL
MIC (E. coli AG100A [2]): 3.12 µg/mL
MIC [3]: 512 µg/mL
MIC (E. coli AG100tet [4]): 512 µg/mL
equilibrium concentration (influx equals efflux) (E. coli AG100A [8]): 0.25 µg/mL
equilibrium concentration (influx equals efflux) (E. coli AG100 [9]; AG100): 1 µg/mL
EtBr fluorescence (E. coli AG100 [9]; EtBr 0.5 µg/ml, cycle 1): 3.237
EtBr fluorescence (E. coli AG100 [9]; EtBr 0.5 µg/ml, cycle 7): 3.883
EtBr fluorescence (E. coli AG100 [9]; EtBr 0.5 µg/ml, cycle 8): 4.039
EtBr fluorescence (E. coli AG100 [9]; EtBr 0.5 µg/ml, cycle 9): 4.222
EtBr fluorescence (E. coli AG100 [9]; EtBr 0.5 µg/ml, cycle 10): 4.226
EtBr fluorescence (E. coli AG100 [9]; EtBr 0.5 µg/ml, cycle 11): 4.3568
EtBr fluorescence (E. coli AG100 [9]; EtBr 0.5 µg/ml, cycle 12): 4.419
EtBr fluorescence (E. coli AG100 [9]; EtBr 0.5 µg/ml, cycle 13): 4.6831
EtBr fluorescence (E. coli AG100 [9]; EtBr 0.5 µg/ml, cycle 14): 4.514
EtBr fluorescence (E. coli AG100 [9]; EtBr 0.5 µg/ml, cycle 15): 4.795
EtBr fluorescence (E. coli AG100 [9]; EtBr 0.5 µg/ml, cycle 16): 4.926
EtBr fluorescence (E. coli AG100 [9]; EtBr 0.5 µg/ml, cycle 17): 4.878
EtBr fluorescence (E. coli AG100 [9]; EtBr 0.5 µg/ml, cycle 18): 4.912
EtBr fluorescence (E. coli AG100 [9]; EtBr 0.5 µg/ml, cycle 19): 5.122
EtBr fluorescence (E. coli AG100 [9]; EtBr 0.5 µg/ml, cycle 20): 5.073
EtBr fluorescence (E. coli AG100 [9]; EtBr 0.5 µg/ml, cycle 21): 5.194
EtBr fluorescence (E. coli AG100 [9]; EtBr 0.5 µg/ml, cycle 22): 5.233
EtBr fluorescence (E. coli AG100 [9]; EtBr 0.5 µg/ml, cycle 23): 5.309
EtBr fluorescence (E. coli AG100 [9]; EtBr 0.5 µg/ml, cycle 24): 5.461
EtBr fluorescence (E. coli AG100 [9]; EtBr 0.5 µg/ml, cycle 25): 5.593
EtBr fluorescence (E. coli AG100 [9]; EtBr 0.5 µg/ml, cycle 26): 5.584
EtBr fluorescence (E. coli AG100 [9]; EtBr 0.5 µg/ml, cycle 27): 5.69
EtBr fluorescence (E. coli AG100 [9]; EtBr 0.5 µg/ml, cycle 28): 5.64
EtBr fluorescence (E. coli AG100 [9]; EtBr 0.5 µg/ml, cycle 29): 5.6965
EtBr fluorescence (E. coli AG100 [9]; EtBr 0.5 µg/ml, cycle 30): 5.739
EtBr fluorescence (E. coli AG100 [9]; EtBr 1 µg/ml, cycle 1): 4.697
EtBr fluorescence (E. coli AG100 [9]; EtBr 1 µg/ml, cycle 2): 4.852
EtBr fluorescence (E. coli AG100 [9]; EtBr 1 µg/ml, cycle 3): 5.005
EtBr fluorescence (E. coli AG100 [9]; EtBr 1 µg/ml, cycle 4): 5.143
EtBr fluorescence (E. coli AG100 [9]; EtBr 1 µg/ml, cycle 5): 5.505
EtBr fluorescence (E. coli AG100 [9]; EtBr 1 µg/ml, cycle 6): 5.767
EtBr fluorescence (E. coli AG100 [9]; EtBr 1 µg/ml, cycle 7): 5.841
EtBr fluorescence (E. coli AG100 [9]; EtBr 1 µg/ml, cycle 8): 6.0562
EtBr fluorescence (E. coli AG100 [9]; EtBr 1 µg/ml, cycle 9): 6.088
EtBr fluorescence (E. coli AG100 [9]; EtBr 1 µg/ml, cycle 10): 6.339
EtBr fluorescence (E. coli AG100 [9]; EtBr 1 µg/ml, cycle 11): 6.446
EtBr fluorescence (E. coli AG100 [9]; EtBr 1 µg/ml, cycle 12): 6.666
EtBr fluorescence (E. coli AG100 [9]; EtBr 1 µg/ml, cycle 13): 6.748
EtBr fluorescence (E. coli AG100 [9]; EtBr 1 µg/ml, cycle 14): 6.978
EtBr fluorescence (E. coli AG100 [9]; EtBr 1 µg/ml, cycle 15): 7.028
EtBr fluorescence (E. coli AG100 [9]; EtBr 1 µg/ml, cycle 16): 7.227
EtBr fluorescence (E. coli AG100 [9]; EtBr 1 µg/ml, cycle 17): 7.381
EtBr fluorescence (E. coli AG100 [9]; EtBr 1 µg/ml, cycle 18): 7.326
EtBr fluorescence (E. coli AG100 [9]; EtBr 1 µg/ml, cycle 19): 7.434
EtBr fluorescence (E. coli AG100 [9]; EtBr 1 µg/ml, cycle 20): 7.666
EtBr fluorescence (E. coli AG100 [9]; EtBr 1 µg/ml, cycle 21): 7.737
EtBr fluorescence (E. coli AG100 [9]; EtBr 1 µg/ml, cycle 22): 7.695
EtBr fluorescence (E. coli AG100 [9]; EtBr 1 µg/ml, cycle 23): 7.798
EtBr fluorescence (E. coli AG100 [9]; EtBr 1 µg/ml, cycle 24): 7.86
EtBr fluorescence (E. coli AG100 [9]; EtBr 1 µg/ml, cycle 25): 7.955
EtBr fluorescence (E. coli AG100 [9]; EtBr 1 µg/ml, cycle 26): 7.794
EtBr fluorescence (E. coli AG100 [9]; EtBr 1 µg/ml, cycle 27): 7.948
EtBr fluorescence (E. coli AG100 [9]; EtBr 1 µg/ml, cycle 28): 8.04
EtBr fluorescence (E. coli AG100 [9]; EtBr 1 µg/ml, cycle 29): 8.111
EtBr fluorescence (E. coli AG100 [9]; EtBr 1 µg/ml, cycle 30): 8.205
EtBr fluorescence (E. coli AG100 [9]; EtBr 2 µg/ml, cycle 1): 9.029
EtBr fluorescence (E. coli AG100 [9]; EtBr 2 µg/ml, cycle 2): 9.296
EtBr fluorescence (E. coli AG100 [9]; EtBr 2 µg/ml, cycle 3): 9.71
EtBr fluorescence (E. coli AG100 [9]; EtBr 2 µg/ml, cycle 4): 9.991
EtBr fluorescence (E. coli AG100 [9]; EtBr 2 µg/ml, cycle 5): 10.2954
EtBr fluorescence (E. coli AG100 [9]; EtBr 2 µg/ml, cycle 12): 12.653
EtBr fluorescence (E. coli AG100 [9]; EtBr 2 µg/ml, cycle 13): 13.0282
EtBr fluorescence (E. coli AG100 [9]; EtBr 2 µg/ml, cycle 14): 13.3381
EtBr fluorescence (E. coli AG100 [9]; EtBr 2 µg/ml, cycle 15): 13.5191
EtBr fluorescence (E. coli AG100 [9]; EtBr 2 µg/ml, cycle 16): 13.6733
EtBr fluorescence (E. coli AG100 [9]; EtBr 2 µg/ml, cycle 17): 14.0513
EtBr fluorescence (E. coli AG100 [9]; EtBr 2 µg/ml, cycle 18): 14.1241
EtBr fluorescence (E. coli AG100 [9]; EtBr 2 µg/ml, cycle 19): 14.4449
EtBr fluorescence (E. coli AG100 [9]; EtBr 2 µg/ml, cycle 20): 14.643
EtBr fluorescence (E. coli AG100 [9]; EtBr 2 µg/ml, cycle 21): 14.9287
EtBr fluorescence (E. coli AG100 [9]; EtBr 2 µg/ml, cycle 22): 15.1966
EtBr fluorescence (E. coli AG100 [9]; EtBr 2 µg/ml, cycle 23): 15.196
EtBr fluorescence (E. coli AG100 [9]; EtBr 2 µg/ml, cycle 24): 15.3241
EtBr fluorescence (E. coli AG100 [9]; EtBr 2 µg/ml, cycle 25): 15.6489
EtBr fluorescence (E. coli AG100 [9]; EtBr 2 µg/ml, cycle 26): 15.801
EtBr fluorescence (E. coli AG100 [9]; EtBr 2 µg/ml, cycle 27): 15.8722
EtBr fluorescence (E. coli AG100 [9]; EtBr 2 µg/ml, cycle 28): 16.0341
EtBr fluorescence (E. coli AG100 [9]; EtBr 2 µg/ml, cycle 29): 16.3924
EtBr fluorescence (E. coli AG100 [9]; EtBr 2 µg/ml, cycle 30): 16.548

N#CC(C#N)=NNc1cccc(Cl)c1 [CCCP, carbonyl cyanide-m-chlorophenylhydrazone]
percentage of depolarized cells (membrane potential collapse) (E. coli AG100 [10]): over 95%
